# Data taken from ChEMBL document CHEMBL1122538, “Functional group contributions to drug-receptor interactions” (J Med Chem, 1984).
# Experiment: Binding energy by using the equation deltaG obsd = -RT ln KD
# Assay type: ADME
row,Compound,Binding energy [kcal/mol]
1,Nc1nc(N)c2nc(Cc3ccccc3)cnc2n1,12.3
2,O=C1CCN([C@H]2C[C@H](O)[C@@H](COP(=O)(O)O)O2)C(=O)N1,10.9
3,OC1(c2ccc(Cl)c(C(F)(F)F)c2)CCN(CCCC(c2ccc(F)cc2)c2ccc(F)cc2)CC1 [PENFLURIDOL],9.9
4,C[N+](C)(C)C [TETRAMETHYLAMMONIUM ION],3.6
5,O=C1CCC(c2ccccc2)(C2CCN(Cc3ccccc3)CC2)C(=O)N1 (centres undefined) [BENZETIMIDE],12
6,Nc1cc(Cl)c(N=C2NCCN2)c(Cl)c1 [APRACLONIDINE],12.7
7,CNCCC(Oc1ccccc1OC)c1ccccc1 (centres undefined) [NISOXETINE],11.5
8,CCN(CC)C(=O)[C@@H]1C=C2c3cccc4[nH]cc(c34)C[C@H]2N(C)C1 [LYSERGIDE],12.7
9,CN(C)CCCN1c2ccccc2Sc2ccc(Cl)cc21 [CHLORPROMAZINE],12.3
10,Clc1cccc(Cl)c1N=C1NCCN1 [CLONIDINE],12.3
11,NCCc1ccc(O)c(O)c1 [DOPAMINE],11.8
12,CC(C)Cc1cnc2nc(N)nc(N)c2n1,12.3
13,O=C(O)Cc1ccccc1Nc1c(Cl)cccc1Cl [DICLOFENAC],9.6
14,COc1cc2nc(N3CCN(C(=O)c4ccco4)CC3)nc(N)c2cc1OC [PRAZOSIN],13.1
15,CC(=O)[C@H]1CC[C@H]2[C@@H]3CCC4=CC(=O)CC[C@]4(C)[C@H]3CC[C@]12C [PROGESTERONE],10.5
16,CCCC(CCC)C(=O)O [VALPROIC ACID],6.1
17,NCc1cc(=O)[nH]o1 [MUSCIMOL],11.9
18,c1ccc2c(c1)OCC(CN1CCCCC1)O2 (centres undefined) [PIPEROXAN],10.7
19,CCCCC[C@H](O)/C=C/[C@@H]1[C@@H](C/C=C\CCCC(=O)O)[C@@H](O)C[C@H]1O [DINOPROST],9.2
20,O=C(O)CC(CC(=O)CP(=O)(O)O)C(=O)O (centres undefined),10.9
21,Oc1ccccc1 [PHENOL],2.7
22,CC(CN1CCOCC1)C(C(=O)N1CCCC1)(c1ccccc1)c1ccccc1 (stereo not drawn) [RACEMORAMIDE],12.3

row,Compound,Binding energy [kcal/mol]
1,CN(Cc1cnc2nc(N)nc(N)c2n1)c1ccc(C(=O)N[C@@H](CCC(=O)O)C(=O)O)cc1 [METHOTREXATE],12.9
2,C[C@H]1[C@H]2C(=O)c3ccc(O)cc3[C@]1(C)CCN2CC1CC1 [KETAZOCINE],11.4
3,O=C(CCCN1CCC(O)(c2ccc(Cl)cc2)CC1)c1ccc(F)cc1 [HALOPERIDOL],12.3
4,CC(=O)O [ACETIC ACID],3.1
5,NCCc1ccccc1 [PHENETHYLAMINE],5.5
6,CN1CCc2cccc3c2[C@H]1Cc1ccc(O)c(O)c1-3 [APOMORPHINE],11.9
7,CC(=O)CC(c1ccccc1)c1c(O)c2ccccc2oc1=O (centres undefined) [WARFARIN],6.9
8,O=C(O)C(COP(=O)(O)O)[C@H](O)[C@H](O)COP(=O)(O)O (some centres undefined),8.2
9,O=C(NO)C(O)P(=O)(O)O (centres undefined),10.9
10,CN1CCC(=C2c3ccccc3Oc3ccc(Cl)cc32)CC1 [CLOPIPAZAN],12.8
11,CNC(=O)Oc1cccc2c1OC(C)(C)C2 [CARBOFURAN],4.6
12,C(=C\c1ccccc1)/CN1CCN(C(c2ccccc2)c2ccccc2)CC1 [CINNARIZINE],8.4
13,Cc1ccc(/C(=C\CN2CCCC2)c2ccccn2)cc1 [TRIPROLIDINE],13.6
14,NC(=O)N1c2ccccc2C=Cc2ccccc21 [CARBAMAZEPINE],5.9
15,CNCCCC1c2ccccc2C=Cc2ccccc21 [PROTRIPTYLINE],10.8
16,CN1C(=O)CN=C(c2ccccc2)c2cc(Cl)ccc21 [DIAZEPAM],11.5
17,CSc1ccc2c(c1)N(CCC1CCCCN1C)c1ccccc1S2 (centres undefined) [THIORIDAZINE],11
18,NCCCC(=O)O [GAMMA-AMINOBUTYRIC ACID],10.9
19,C[C@]12CCC(=O)C[C@@H]1CC[C@@H]1[C@@H]2CC[C@]2(C)[C@@H](O)CC[C@@H]12 (stereo in doubt; 155) [STANOLONE],13.1
20,O=c1oc2ccccc2c(O)c1Cc1c(O)c2ccccc2oc1=O [DICUMAROL],8.8
21,C[C@@H]1O[C@@H](O[C@H]2C[C@@H](O)[C@]3(CO)[C@H]4[C@H](O)C[C@]5(C)[C@@H](C6=CC(=O)OC6)CC[C@]5(O)[C@@H]4CC[C@]3(O)C2)[C@H](O)[C@H](O)[C@H]1O [OUABAIN],11.5
22,CN(C)CCC=C1c2ccccc2COc2ccccc21 [DOXEPIN],13.1

row,Compound,Binding energy [kcal/mol]
1,CCCCC[C@H](O)/C=C/[C@H]1[C@H](O)CC(=O)[C@@H]1C/C=C\CCCC(=O)O [DINOPROSTONE],11.5
2,CC(C)Cc1ccc(C(C)C(=O)O)cc1 (centres undefined) [IBUPROFEN],8.3
3,CCCCC1C(=O)N(c2ccccc2)N(c2ccccc2)C1=O [PHENYLBUTAZONE],7.3
4,Oc1ncnc2[nH]ncc12 [ALLOPURINOL],12.5
5,OC[C@H]1OC(O)[C@H](O)[C@@H](O)[C@@H]1O (some centres undefined) [DEXTROSE],8.7
6,O=C(O)COP(=O)(O)O [PHOSPHOGLYCOLIC ACID],8.7
7,Cc1ncc(CO)c(CN[C@@H](C)C(=O)O)c1O,9.2
8,O=C(O)CCCC[C@@H]1SC[C@@H]2NC(=O)N[C@@H]21 [BIOTIN],20.5
9,C=CCc1ccccc1OCC(O)CNC(C)C (centres undefined) [ALPRENOLOL],12.9
10,O=P(O)(O)O [PHOSPHORIC ACID],7.7
11,C[C@]12CCC(=O)C=C1CC[C@@H]1[C@@H]2[C@@H](O)C[C@]2(C=O)[C@@H](C(=O)CO)CC[C@@H]12 [ALDOSTERONE],12.7
12,COc1ccc(CN(CCN(C)C)c2ccccn2)cc1 [PYRILAMINE],12.7
13,COc1cc(Cc2cnc(N)nc2N)cc(OC)c1OC [TRIMETHOPRIM],11.5
14,O=C1Nc2ccc(Cl)cc2C(c2ccccc2Cl)=NC1O (centres undefined) [LORAZEPAM],11.6
15,O=C1CN=C(c2ccccn2)c2cc(Br)ccc2N1 [BROMAZEPAM],10.3
16,CC(=O)OCC[N+](C)(C)C [ACETYLCHOLINE],11.1
17,O=C(O)CCc1ccccc1 [PHENYL PROPIONIC ACID],5.5
18,C[C@]12CC[C@@H]3c4ccc(O)cc4CC[C@H]3[C@@H]1CC[C@@H]2O [ESTRADIOL],13.2
19,C[C@]12CCC(=O)C[C@@H]1CC[C@@H]1[C@@H]2CC[C@]2(C)[C@@H](O)CC[C@@H]12 (stereo in doubt) [STANOLONE],6.8
20,O=C(c1ccc(F)cc1)C1CCN(CCn2c(=O)[nH]c3ccccc3c2=O)CC1 [KETANSERIN],12.8
